Data: patent US20240366605A1, “USE OF QUINAZOLINONE COMPOUND FOR THE TREATMENT OF CANCER” (Hoffmann-La Roche Inc., priority 2021, published 2024)

How the values were obtained:
[1] = system: intracranially implanted A375 tumours (BRAF V600E); assay: Intracranial A375 luc melanoma model (brain metastatic setting); assay type: in vivo, mice
Text: (§1) All animal experiments were approved by and performed according to the guidelines of the Institutional Animal Care Committee of the Vall d'Hebron Research Institute in agreement with the European Union and national directives. Female and male NOD scid gamma (NSG) mice of 4 to 5-week-old were purchased from Charles River.
For intracranial models, 5×10^5 A375 luc cells were stereotactically inoculated into the corpus striatum of the right brain hemisphere (1 mm anterior and 1.8 mm lateral to the […]; 2.5 mm intraparenchymal) of mice. Brain implanted tumors were monitored through regular Bioluminescence (BLI) signal detection and a relapse was determined upon observation of a progressive gradual increase of BLI signal.
The A375 cell line presenting BRAF V600E was used as melanoma model. The cell line was stably transduced with a luciferase expressing vector to facilitate tumor size monitoring. […] Brain implanted tumors were monitored through regular Bioluminescence (BLI) signal detection and a relapse was determined upon observation of a progressive gradual increase of BLI signal. […]
The A375 cell line presenting BRAF V600E was used as melanoma model. […] Brain implanted tumors were monitored through regular Bioluminescence (BLI) signal detection and a relapse was determined upon observation of a progressive gradual increase of BLI signal (total flux (p/s) was used to estimate tumour size). […]

[2] = system: primary tumors from brain metastatic lesions progressing on BRAFi monotherapy or combination therapy with a MEKi; assay: In vivo testing in primary tumors from brain metastatic lesions progressing on BRAFi or BRAFi/MEKi
[3] = system: subcutaneously implanted A375 tumours (BRAF V600E); assay: Subcutaneous A375 luc melanoma model (peripheral disease); assay type: in vivo, mice
Text: as §1
For subcutaneous model, 5×10^6 A375 melanoma cells were subcutaneously injected into one flank of mice. Tumour growth was monitored with a Calipher.
The A375 cell line presenting BRAF V600E was used as melanoma model. The cell line was stably transduced with a luciferase expressing vector to facilitate tumor size monitoring. A375 luc were implanted subcutaneously to mimic peripheral disease and then randomized when tumors reached 100-300 mm^3. (10 mice/group). The mice were administered either Vehicle, Compound Ia 10 mg/kg (QD PO) or dabrafenib 100 mg/kg (QD PO). In a fourth treatment cohort, dabrafenib 100 mg/kg (QD PO) was administered until tumor relapse occurred, at which point dabrafenib treatment was discontinued and mice were instead treated with Compound Ia 10 mg/kg (QD PO).

[4] = relapse under dabrafenib 100 mg/kg QD PO, caliper

SMILES	responses, brain metastatic lesions ([1]; brain compartment)	responses upon relapse to available BRAFi and BRAFi/MEKi co-treatment ([1]; switch to Compound Ia after relapse, brain lesions)	antitumor activity [2]	responses, peripheral lesions ([3]; peripheral compartment)	responses upon relapse to available BRAFi ([3]; switch to Compound Ia after relapse, peripheral lesions)	Tumour size in relapse (mean value) [3, 4] [mm^3]	Tumour size in relapse (range) [3, 4]
Cn1cnc2ccc(Oc3c(F)ccc(NS(=O)(=O)N4CC[C@@H](F)C4)c3C#N)cc2c1=O [Compound Ia, (3R)—N-[2-cyano-4-fluoro-3-(3-methyl-4-oxo-quinazolin-6-yl)oxy-phenyl]-3-fluoro-pyrrolidine-1-sulfonamide]	long lasting responses	dramatic responses	potent antitumor activity	long lasting responses	dramatic responses		
CC(C)(C)c1nc(-c2cccc(NS(=O)(=O)c3c(F)cccc3F)c2F)c(-c2ccnc(N)n2)s1 [dabrafenib, reference compound]						558	300-700 mm3
